Data set [1] in a line: In vivo pharmacokinetic and oral bioavailability. Particulars: male Swiss mice. The procedure:
The in vivo pharmacokinetics and oral bioavailability of the compound of the examples was/is investigated in male Swiss mice (fed) following single intravenous (i.v.) bolus and oral (p.o.) administration. For the i.v. and p.o. solution formulations, the compound was/is dissolved in a 20% HP-β-CD solution. The pH of the formulations was/is around pH 4. All i.v. formulations were isotonic.

For data set [2], the system named is Escherichia coli ATCC 25922; reference strain. Nature of the data set: Antimicrobial spectrum, broth microdilution MIC. The class given is cell-based. Particulars: E. coli ATCC 25922. The method, then:
(§1) Minimum Inhibitory Concentrations (MICs) were determined in accordance with the Clinical and Laboratory Standards Institute (CLSI) methodology against aerobic bacteria (CLSI M07-A8) (see Clinical and Laboratory Standards Institute. 2009. Methods for dilution antimicrobial susceptibility tests for bacteria that grow aerobically. CLSI document M07-A8, Vol. 29, No. 2.) by the broth microdilution method with cation-adjusted Mueller-Hinton broth (CA-MHB) medium for the majority of organisms, except for Haemophilus influenza, where Haemophilis test medium (HTM) broth was used. Descriptions of the individual organisms can be found in the table. Where possible, ATCC standard strains were tested.
(§2) The inoculum density for the susceptibility testing was standardized to give a final inoculum of approximately 5×10^5 CFU/mL.
(§3) Stock solutions of the compounds were prepared in DMSO at concentrations of 1 mg/mL. Linezolid was prepared in DMSO at a concentration of 2 mg/mL. Stock solutions of all compounds were diluted into CA-MHB to give a range of two-fold dilutions, depending upon the sensitivity of the organism being tested.

Data set [3] relates to Staphylococcus aureus NRS119; LZD-R. Nature of the data set: Antimicrobial spectrum, broth microdilution MIC. Conditions: S. aureus NRS119. It counts as cell-based. The procedure:
as §1, §2, §3

In data set [4] the test system is Staphylococcus aureus ATCC 43300; reference strain MRSA. Kind of data set: Antimicrobial spectrum, broth microdilution MIC. The class given is cell-based. Particulars: S. aureus ATCC 43300. The procedure:
as §1, §2, §3

Data set [5] concerns Staphylococcus aureus ATCC 29213; reference strain MSSA. Nature of the data set: Antimicrobial spectrum, broth microdilution MIC. Particulars: S. aureus ATCC 29213. The class given is cell-based. The procedure:
as §1, §2, §3

The test system of data set [6] is Staphylococcus aureus NRS121; LZD-R. Nature of the data set: Antimicrobial spectrum, broth microdilution MIC. The class given is cell-based. Particulars: S. aureus NRS121. The procedure: as §1, §2, §3
In data set [7] the test system is Staphylococcus aureus NRS120; LZD-R. Nature of the data set: Antimicrobial spectrum, broth microdilution MIC. Particulars: S. aureus NRS120. It counts as cell-based. The method, then:
as §1, §2, §3

Data set [8] concerns Escherichia coli Tol C mutant. Nature of the data set: Antimicrobial spectrum, broth microdilution MIC. The class given is cell-based. Conditions: E. coli tolC mutant. The method, then: as §1, §2, §3
Data set [9] has as its target S. aureus ATCC 29213 FabI (Staphylococcus aureus (strain MRSA252), UniProt Q6GI75). Nature of the data set: Staphylococcus aureus FabI enzyme inhibition assay. The class given is biochemical. Conditions: pH 6.5, 30 minutes at room temperature. The procedure: FabI enzyme inhibition assays were carried out in half-area, 384-well microtitre plates. Compounds were evaluated in 40-μl assay mixtures containing 100 mM NaADA, pH 6.5 (ADA=N-[2-acetamido]-2iminodiacetic acid), 250 μM crotonoyl-CoA, 625 μM NADH and 50 μg/ml S. aureus ATCC 29213 FabI. Inhibitors were typically varied over the range of 50 to 0.39 μM. The reaction mixtures were incubated for 30 minutes at room temperature and the reaction was stopped by adding 200 mM Tris buffer (pH 9.0) to create a pH-shift. The consumption of NADH was monitored by measuring the change in absorbance at […]. By comparing sample readings to those of negative (absence of compound) and positive (absence of enzyme) controls, the percent inhibition of enzymatic activity of the compounds was determined. A best-fit curve is fitted by a minimum of squares method. From this an IC50-value (expressed in μg/ml), resulting in 50% inhibition of enzymatic activity, was obtained.

Data set [10] concerns Human HelaM cells. Kind of data set: Cytotoxicity MTT assay (TOX HELAM). It counts as cell-based. Particulars: 72 hours. The procedure:
Cytotoxicity of the compounds was evaluated using the MTT assay. Human HelaM cells grown in 96-well plates were exposed to serial dilutions of the tested compounds (final volume of 0.2 ml) and incubated for 72 hours at 37° C. and 5% CO2. Inhibitors are typically varied over the range of 25 to 0.8 μM. The final DMSO concentration in the assay is 0.5%. MTT (3-(4,5-Dimethylthiazol-2-yl)-2,5-diphenyltetrazolium bromide, a tetrazole) was added and reduced to purple formazan only in living cells. Solubilization of the formazan crystals was achieved by adding 100 μl 2-propanol. Cell viability was determined by measuring the absorbance of the reduced formazan, giving a purple color, at 540 nm and 690 nm. The absorbance measured at 690 nm was automatically subtracted from the absorbance at 540 nm, to eliminate the effects of non-specific absorption. The percent cytotoxicity achieved by the compounds was calculated according to standard methods. Cytotoxicity is reported as CC50, the concentration that causes a 50% reduction in cell viability.
The results are depicted in the table D2 below (TOX HELAM).

Data set [11] relates to S. aureus. Kind of data set: Antibacterial susceptibility testing: IC90 determination with 10% human serum (STA + 10% HS). It counts as cell-based, Staphylococcus aureus. Conditions: human serum at a final concentration of 10%. The procedure: (§4) The following bacteria were used: Staphylococcus aureus ATCC 29213, methicillin-resistant Staphylococcus aureus (MRSA) ATCC 700788 and Escherichia coli ATCC 35218. The bacteria used in this study were grown overnight in flasks containing 100 ml Mueller-Hinton broth (Difco cat. nr. 0757-17) in sterile de-ionized water, with shaking, at 37° C. Stocks were store at −70° C. until use.
(§5) Bacteria were incubated on a tryptic soy agar plate containing 5% sheep blood (Becton Dickinson cat. nr. 254053) for 18-24 hours at 35° C. in aerobic conditions (first passage). For the second passage, fresh Mueller-Hinton broth is inoculated with 5-10 colonies and grown overnight at 35° C. until turbidity (reaching log-phase) in aerobic conditions is reached. The bacterial suspension is then adjusted to 0.5 McFarland density and further diluted 1:100 in Mueller Hinton broth medium. This is used as inoculum.
(§6) MIC assays were performed by the broth microdilution method in a 96-well format (flat-bottom microtitre plates) with a final volume of 0.1 ml Mueller Hinton broth containing two-fold serial dilutions of compounds and inoculated with 5×10^5 CFU/ml of bacteria (standard inoculum size according to CLSI guidelines). Inhibitors are typically varied over the range of 63 to 0.49 μM. The final DMSO concentration in the assay was 1.25% (maximum tolerable DMSO concentration=6%). In the assays where the effect of human serum on the activity of the compounds against S. aureus was tested, human serum was added at a final concentration of 10%. The plates were incubated at 35° C. for 16-20 hours. At the end of incubation the bacterial growth was quantified fluorometrically. For this, resazurin was added to all wells and the plates were re-incubated. The incubation time is dependent on the type of bacteria. A change in color from blue to pink indicated the growth of bacteria. The fluorescence was read in computer-controlled fluorometer (Fluoroskan Ascent FL, Labsystems) at an excitation wavelength 540 nm and an emission wavelength of 590 nm. The % growth inhibition achieved by the compounds was calculated according to standard methods. The IC90 (expressed in μg/ml) was defined as the 90% inhibitory concentration for bacterial growth. A panel of reference compounds were simultaneously tested for QC approval.
The results are depicted in the table D2 below (STA+10% HS).

Data set [12] deals with Staphylococcus aureus ATCC 29213. Kind of data set: Antibacterial susceptibility testing: IC90 determination (STA). The class given is cell-based. Particulars: STA ATCC 29213, 90% inhibitory concentration for bacterial growth. The procedure:
as §4, §5, §6

Structures are written as SMILES. Converted amounts (≈) assume the structure as drawn.

Consider `O=C1CCc2cc(/C=C/C(=O)N3CC4C=C(c5ccccc5)CC4C3)cnc2N1` (stereo not drawn) [compound 1], for which the AUC0-inf in data set [1] (i.v. 2.5 mg/kg) came to 7074 ng·h/mL; in [1] (p.o. 5 mg/kg), 12158 ng·h/mL. Also, the “Half life (t1/2)” value came out at 2.9 h in data set [1] (i.v. 2.5 mg/kg) and 3.1 h in data set [1] (p.o. 5 mg/kg). For the same compound, the “Plasma clearance Cl” value in [1] (i.v. 2.5 mg/kg) is 5.83 mL/min/kg. This compound showed a Vdz in data set [1] (i.v. 2.5 mg/kg) of 1.5 L/kg. In addition, in data set [1] (i.v. 2.5 mg/kg, 20% HP-β-CD solution), the C0 is reported as 2921 ng/mL. This compound also had an Oral bioavailability in [1] (p.o. 5 mg/kg vs i.v. 2.5 mg/kg) of 86%. In [1] (p.o. 5 mg/kg), this compound showed a Cmax of 1720 ng/mL. Also, the Tmax in data set [1] (p.o. 5 mg/kg) is 2.0 h. Also, the MIC90 in data set [2] was over 32 µg/mL; in [3], 0.03 µg/mL (≈ 0.0778 µM); in data set [4], 0.016 µg/mL (≈ 0.0415 µM); in data set [5], 0.016 µg/mL (≈ 0.0415 µM); in [6], 0.016 µg/mL (≈ 0.0415 µM); in data set [7] it was 0.016 µg/mL (≈ 0.0415 µM). In addition, in data set [8], the MIC90 result is given as “≦0.03 μg/ml”. The “FabI IC50” value in data set [9] came to 0.32 µg/mL. The “TOX HELAM (222.125) CC50” value in [10] is over 3.8547 µg/mL. Besides, the “STA + 10% HS (361.169) IC90” value in data set [11] came out at 0.17 µg/mL. Further, the “STA (361.159) IC90” value in data set [12] worked out at 0.09 µg/mL.

(Values after patent US9617262B2, “Antibacterial cyclopental[C]pyrrole substituted 3,4-dihydro-1H-[1,8]naphthyridinones” (Janssen Sciences Ireland UC, priority 2011, dated 2017).)
